Experimental data from patent publication US20150094264A1, “USE OF OBESTATIN FOR MUSCLE REGENERATION” (UNIVERSIDADE DE SANTIAGO DE COMPOSTELA, priority 2012, published 2015).

What was measured:
L6E9 myoblasts = assay: Mitogenic effect (number of cells) in L6E9 myoblasts in growth medium; type: cell-based, rat
Procedure: FIG. 2. Mitogenic effect of obestatin in L6E9 myoblasts. Mitogenic effect of different doses of obestatin (0.01-100 nM) in L6E9 myoblasts after 48 hours of stimulation in the presence of growth medium [GM: DMEN+10% FBS]. Co: initial number of cells. Control: number of cells after 48 hours in GM. GM+obestatin: number of cells after 48 hours of stimulation with obestatin in GM. The data are expressed as mean±standard error of 4 independent experiments (*, p<0.05).
The studies were performed based on the use of L6E9 rat myoblasts which were maintained in growth medium (GM) formed by DMEM (Dulbecco's Modified Eagle Medium) supplemented with 10% fetal bovine serum (FBS), 100 U/mL penicillin, and 100 U/mL streptomycin. For the differentiation, the cells were cultured at 80-100% of confluence in GM and it was replaced for differentiation medium (DM) formed by DMEM supplemented with 2% FBS, 100 U/mL penicillin, and 100 U/mL streptomycin during 6 days.
Dose-dependent studies performed on myoblasts with different obestatin concentrations (0.01-100 nM) in GM (proliferative conditions) show a maximum increase in the number of cells at 48 hours post-stimulation at a concentration of 5.0 nM obestatin (˜2.2-increased in relation to the control; FIG. 2).

[1] = tested on: damaged tibialis anterior of mouse; assay: Histological (hematoxylin/eosin) analysis of muscle regeneration in damaged tibialis anterior of mouse; type: in vivo, Swiss mice; conditions: 300 nmol/kg weight local
Procedure: FIG. 9. Immunohistochemical analysis of the effect of the exogenous administration of obestatin on the capacity for muscle regeneration in the damaged tibialis anterior of mouse (animal model). The images shown are representative of the sections of the damaged tibialis anterior muscle (hematoxylin/eosin staining) under the local exogenous administration of obestatin (300 nmol/kg/24 h) or PBS (control) 48, 96, 168 and 240 h after inducing the damage. The images show the area of damage and regeneration at the indicated times.
FIG. 10. Quantitative analysis of the areas of the regenerative fibres of the tibialis anterior 96 and 168 hours after inducing the damage and exogenous administration of obestatin or PBS (control). The analysis corresponds to the area of regeneration myofibers in the tibialis anterior. For this purpose, an immunohistochemical analysis was performed by staining with hematoxylin/eosin and later quantification of the area of the myofiber by the use of the ImageJ64 program (n=10 per group; mean±standard error; *, p<0.005).
The muscle samples were mounted in a cold freezing medium [Tragacanth; Santa Cruz Biotechnology (CA, USA)] and frozen in a mixture of nitrogen-isopentane. The tissue sections were obtained by serial cuts with a cryostat (10 μm) and were mounted in adhesion slides for histochemistry (Marienfeld, Lauda-Konigshofen, Germany). The sections fixed were stained with hematoxylin/eosin. The quantification of the area of the regenerative myofibers was performed by using ImageJ64 analysis software.
(§1) The mice (30 g; n=50) were maintained in 12 h light-darkness cycled with free access to standard diet and water. To induce the muscle damage, the tibialis anterior muscle (TA) was extracted under anaesthesia and subjected to three cycles of damage due to cold contact applying along the length of the muscle a metal bar cooled in liquid nitrogen. The damaged muscles were treated locally with obestatin injection (300 nmol/kg weight) or the corresponding vehicle (PBS; control) during the times indicated in 24 h intervals. […]

[2] = tested on: damaged tibialis anterior of mouse; assay: Creatine kinase levels in serum of mice with damaged tibialis anterior; type: in vivo, Swiss mice; conditions: 300 nmol/kg weight local; 96 h
Procedure: FIG. 12. Analysis of the creatine kinase levels in serum of mice wherein damage was induced in the tibialis anterior muscle and they were treated locally with obestatin or vehicle (PBS) during 96 h. The creatine kinase levels are expressed as IU/L (International units/litre for the three study groups: control without damage, damage control (PBS) and treatment with obestatin (n=10 per group; mean±standard error; *, #, p<0.005).
as §1, with “intervals. The animals were assigned to one of the five experimental groups (n=10/group): 1) control group (saline); 2) obestatin group 48 h (obestatin 300 nmol/kg weight/24 h); 3) obestatin group 96 h (obestatin 300 nmol/kg weight/24 h); 4) obestatin group 168 h (obestatin 300 nmol/kg weight/24 h); and, obestatin group 240 h (obestatin 300 nmol/kg weight/24 h).” for “intervals.”

[3] = tested on: tibialis anterior muscle in mice where the sciatic nerve has been denervated; assay: Weight reduction of tibialis anterior after denervation of the sciatic nerve (model of muscular atrophy); type: in vivo, Swiss mice; conditions: 300 nmol/kg weight local, 14 days
Procedure: FIG. 14. Analysis of the weight reduction of the tibialis anterior muscle in mice where the sciatic nerve has been denervated (model of muscular atrophy) under the exogenous administration of obestatin or vehicle (PBS). Swiss mice were used whereon the sciatic nerve was denervated in one of the limbs, using the other as control. The effect of the administration of obestatin (300 nmol/kg weight) or the vehicle (PBS; control) was assessed in the tibialis anterior muscle after 14 days. The data are expressed as % of weight reduction with respect to the control without denervation (n=5 per group; mean±standard error; *, p<0.005).
To study muscular atrophy, the sciatic nerve was denervated using Swiss mice. The denervation of the sciatic nerve was performed under anaesthesia, making an incision in the mid thigh on the lateral face of the rear right limb, separating the muscles and raising the sciatic nerve with surgical forceps. A portion of the nerve was isolated removing a fragment thereof. Finally the incision was closed. These animals were locally administered an injection of obestatin (300 nmol/kg weight) or the corresponding vehicle (PBS; control) in intervals of 24 h during 14 days.

obestatin
maximum increase in the number of cells in relation to the control (L6E9 myoblasts; 5.0 nM obestatin, 48 hours post-stimulation, GM (DMEM+10% FBS)): ~2.2 | obestatin concentration of maximum increase in the number of cells (L6E9 myoblasts; range 0.01-100 nM, 48 hours, GM): 5.0 nM | regenerative process (restructuring of the myofibers in the area of damage) in relation to controls ([1]; 48, 96, 168 and 240 h): acceleration | area of the regenerative fibres in the tibialis anterior in relation to controls ([1]; 96 and 168 h after the treatment): significant increase | calibre of the regenerative myofibers in relation to controls ([1]; hematoxylin/eosin sections): significant increase | creatine kinase serum levels in relation to muscle damage controls (PBS) [2]: significant reduction | loss of tibialis anterior muscle mass (weight) in relation to vehicle (PBS) controls [3]: reduces the loss of muscle mass
